Converted amounts (≈) assume the structure as drawn.
Assays:
Type in all cases: functional
[1] = tested on: Bacillus subtilis; test: Antibacterial activity against Bacillus subtilis after 24 hrs by disk diffusion method
[2] = tested on: Aspergillus fumigatus; test: Antifungal activity against Aspergillus fumigatus after 26 hrs by serial plate dilution method
[3] = tested on: Candida albicans; test: Antifungal activity against Candida albicans after 26 hrs by serial plate dilution method
[4] = tested on: Aspergillus flavus; test: Antifungal activity against Aspergillus flavus after 26 hrs by serial plate dilution method
[5] = tested on: Pseudomonas aeruginosa; test: Antibacterial activity against Pseudomonas aeruginosa after 24 hrs by disk diffusion method
[6] = tested on: Streptococcus pneumoniae; test: Antibacterial activity against Streptococcus pneumoniae after 24 hrs by disk diffusion method
[7] = tested on: Escherichia coli; test: Antibacterial activity against Escherichia coli after 24 hrs by disk diffusion method
[8] = tested on: Aspergillus niger; test: Antifungal activity against Aspergillus niger after 26 hrs by serial plate dilution method

COc1ccc(-n2c(=O)c3ccccc3n3c(-c4ccccc4C)nnc23)cc1
MIC [1]: 12.5 µg/mL (≈ 32.7 µM)
MIC [2]: 6.25 µg/mL (≈ 16.3 µM)
MIC [3]: 12.5 µg/mL (≈ 32.7 µM)
MIC [4]: 25 µg/mL (≈ 65.4 µM)
MIC [5]: 3.12 µg/mL (≈ 8.16 µM)
MIC [6]: 25 µg/mL (≈ 65.4 µM)
MIC [7]: 6.25 µg/mL (≈ 16.3 µM)
MIC [8]: 6.25 µg/mL (≈ 16.3 µM)

COc1ccc(-n2c(=O)c3ccccc3n3c(-c4ccccc4)nnc23)cc1
MIC [1]: 12.5 µg/mL (≈ 33.9 µM)
MIC [2]: 12.5 µg/mL (≈ 33.9 µM)
MIC [3]: 6.25 µg/mL (≈ 17 µM)
MIC [4]: 25 µg/mL (≈ 67.9 µM)
MIC [5]: 6.25 µg/mL (≈ 17 µM)
MIC [6]: 6.25 µg/mL (≈ 17 µM)
MIC [7]: 12.5 µg/mL (≈ 33.9 µM)
MIC [8]: 3.12 µg/mL (≈ 8.47 µM)

Cc1ccc(-n2c(=O)c3ccccc3n3c(-c4ccccc4)nnc23)cc1
MIC [1]: 50 µg/mL (≈ 142 µM)
MIC [2]: 25 µg/mL (≈ 70.9 µM)
MIC [3]: > 50 µg/mL
MIC [4]: 50 µg/mL (≈ 142 µM)
MIC [5]: 25 µg/mL (≈ 70.9 µM)
MIC [6]: 50 µg/mL (≈ 142 µM)
MIC [7]: 25 µg/mL (≈ 70.9 µM)
MIC [8]: 50 µg/mL (≈ 142 µM)

O=c1c2ccccc2n2c(-c3ccccc3)nnc2n1-c1ccc(Cl)cc1
MIC [1]: 6.25 µg/mL (≈ 16.8 µM)
MIC [2]: 6.25 µg/mL (≈ 16.8 µM)
MIC [3]: 12.5 µg/mL (≈ 33.5 µM)
MIC [4]: 12.5 µg/mL (≈ 33.5 µM)
MIC [5]: 12.5 µg/mL (≈ 33.5 µM)
MIC [6]: 12.5 µg/mL (≈ 33.5 µM)
MIC [7]: 6.25 µg/mL (≈ 16.8 µM)
MIC [8]: 25 µg/mL (≈ 67.1 µM)

O=c1c2ccccc2n2c(-c3ccccc3)nnc2n1-c1ccccc1
MIC [1]: 25 µg/mL (≈ 73.9 µM)
MIC [2]: > 50 µg/mL
MIC [3]: 25 µg/mL (≈ 73.9 µM)
MIC [4]: > 50 µg/mL
MIC [5]: > 50 µg/mL
MIC [6]: 50 µg/mL (≈ 148 µM)
MIC [7]: 50 µg/mL (≈ 148 µM)
MIC [8]: 25 µg/mL (≈ 73.9 µM)

Cc1ccc(N2C(=O)c3ccccc3N3C2=NNC(=S)N3c2ccccc2)cc1
MIC [1]: 25 µg/mL (≈ 62.6 µM)
MIC [2]: 12.5 µg/mL (≈ 31.3 µM)
MIC [3]: 25 µg/mL (≈ 62.6 µM)
MIC [4]: 12.5 µg/mL (≈ 31.3 µM)
MIC [5]: 25 µg/mL (≈ 62.6 µM)
MIC [6]: > 50 µg/mL
MIC [7]: 25 µg/mL (≈ 62.6 µM)
MIC [8]: 25 µg/mL (≈ 62.6 µM)

Cc1ccc(-n2c(=O)c3ccccc3n3c4nc5ccccc5c-4nnc23)cc1
MIC [1]: 25 µg/mL (≈ 66.2 µM)
MIC [2]: 12.5 µg/mL (≈ 33.1 µM)
MIC [3]: 25 µg/mL (≈ 66.2 µM)
MIC [4]: 25 µg/mL (≈ 66.2 µM)
MIC [5]: > 50 µg/mL
MIC [6]: 25 µg/mL (≈ 66.2 µM)
MIC [7]: 25 µg/mL (≈ 66.2 µM)
MIC [8]: 50 µg/mL (≈ 132 µM)

COc1ccc(-n2c(=O)c3ccccc3n3c4nc5ccccc5c-4nnc23)cc1
MIC [1]: 6.25 µg/mL (≈ 15.9 µM)
MIC [2]: 6.25 µg/mL (≈ 15.9 µM)
MIC [3]: 6.25 µg/mL (≈ 15.9 µM)
MIC [4]: 3.12 µg/mL (≈ 7.93 µM)
MIC [5]: 12.5 µg/mL (≈ 31.8 µM)
MIC [6]: 12.5 µg/mL (≈ 31.8 µM)
MIC [7]: 12.5 µg/mL (≈ 31.8 µM)
MIC [8]: 12.5 µg/mL (≈ 31.8 µM)

O=C1c2ccccc2N2C(=NNC(=S)N2c2ccccc2)N1c1ccccc1
MIC [1]: > 50 µg/mL
MIC [2]: > 50 µg/mL
MIC [3]: 25 µg/mL (≈ 64.9 µM)
MIC [4]: > 50 µg/mL
MIC [5]: 50 µg/mL (≈ 130 µM)
MIC [6]: 25 µg/mL (≈ 64.9 µM)
MIC [7]: > 50 µg/mL
MIC [8]: 25 µg/mL (≈ 64.9 µM)

COc1ccc(N2C(=S)NN=C3N(c4ccccc4)C(=O)c4ccccc4N32)cc1
MIC [1]: 3.12 µg/mL (≈ 7.51 µM)
MIC [2]: 12.5 µg/mL (≈ 30.1 µM)
MIC [3]: 6.25 µg/mL (≈ 15 µM)
MIC [4]: 25 µg/mL (≈ 60.2 µM)
MIC [5]: 3.12 µg/mL (≈ 7.51 µM)
MIC [6]: 25 µg/mL (≈ 60.2 µM)
MIC [7]: 6.25 µg/mL (≈ 15 µM)
MIC [8]: 3.12 µg/mL (≈ 7.51 µM)

Cc1ccccc1-c1nnc2n(-c3ccccc3)c(=O)c3ccccc3n12
MIC [1]: > 50 µg/mL
MIC [2]: 25 µg/mL (≈ 70.9 µM)
MIC [3]: 50 µg/mL (≈ 142 µM)
MIC [4]: 25 µg/mL (≈ 70.9 µM)
MIC [5]: 50 µg/mL (≈ 142 µM)
MIC [6]: > 50 µg/mL
MIC [7]: 25 µg/mL (≈ 70.9 µM)
MIC [8]: > 50 µg/mL

Cc1ccccc1-c1nnc2n(-c3ccc(Cl)cc3)c(=O)c3ccccc3n12
MIC [1]: 12.5 µg/mL (≈ 32.3 µM)
MIC [2]: 12.5 µg/mL (≈ 32.3 µM)
MIC [3]: 6.25 µg/mL (≈ 16.2 µM)
MIC [4]: 3.12 µg/mL (≈ 8.07 µM)
MIC [5]: 25 µg/mL (≈ 64.6 µM)
MIC [6]: 25 µg/mL (≈ 64.6 µM)
MIC [7]: 12.5 µg/mL (≈ 32.3 µM)
MIC [8]: 12.5 µg/mL (≈ 32.3 µM)

Cc1ccc(-n2c(=O)c3ccccc3n3c(-c4ccccc4Cl)nnc23)cc1
MIC [1]: 25 µg/mL (≈ 64.6 µM)
MIC [2]: 25 µg/mL (≈ 64.6 µM)
MIC [3]: 12.5 µg/mL (≈ 32.3 µM)
MIC [4]: 50 µg/mL (≈ 129 µM)
MIC [5]: 6.25 µg/mL (≈ 16.2 µM)
MIC [6]: 12.5 µg/mL (≈ 32.3 µM)
MIC [7]: 12.5 µg/mL (≈ 32.3 µM)
MIC [8]: 6.25 µg/mL (≈ 16.2 µM)

Cc1ccc(-n2c(=O)c3ccccc3n3c(-c4ccccc4C)nnc23)cc1
MIC [1]: > 50 µg/mL
MIC [2]: 12.5 µg/mL (≈ 34.1 µM)
MIC [3]: 25 µg/mL (≈ 68.2 µM)
MIC [4]: 50 µg/mL (≈ 136 µM)
MIC [5]: > 50 µg/mL
MIC [6]: 25 µg/mL (≈ 68.2 µM)
MIC [7]: 25 µg/mL (≈ 68.2 µM)
MIC [8]: 12.5 µg/mL (≈ 34.1 µM)

O=c1c2ccccc2n2c(-c3ccccc3Cl)nnc2n1-c1ccccc1
MIC [1]: 50 µg/mL (≈ 134 µM)
MIC [2]: 50 µg/mL (≈ 134 µM)
MIC [3]: 25 µg/mL (≈ 67.1 µM)
MIC [4]: 12.5 µg/mL (≈ 33.5 µM)
MIC [5]: 6.25 µg/mL (≈ 16.8 µM)
MIC [6]: 25 µg/mL (≈ 67.1 µM)
MIC [7]: 12.5 µg/mL (≈ 33.5 µM)
MIC [8]: 6.25 µg/mL (≈ 16.8 µM)

COc1ccc(-n2c(=O)c3ccccc3n3c(-c4ccccc4Cl)nnc23)cc1
MIC [1]: 3.12 µg/mL (≈ 7.74 µM)
MIC [2]: 3.12 µg/mL (≈ 7.74 µM)
MIC [3]: 6.25 µg/mL (≈ 15.5 µM)
MIC [4]: 3.12 µg/mL (≈ 7.74 µM)
MIC [5]: 1.56 µg/mL (≈ 3.87 µM)
MIC [6]: 6.25 µg/mL (≈ 15.5 µM)
MIC [7]: 3.12 µg/mL (≈ 7.74 µM)
MIC [8]: 1.56 µg/mL (≈ 3.87 µM)

Cc1ccc(N2C(=S)NN=C3N(c4ccccc4)C(=O)c4ccccc4N32)cc1
MIC [1]: 50 µg/mL (≈ 125 µM)
MIC [2]: 25 µg/mL (≈ 62.6 µM)
MIC [3]: > 50 µg/mL
MIC [4]: 12.5 µg/mL (≈ 31.3 µM)
MIC [5]: 50 µg/mL (≈ 125 µM)
MIC [6]: 25 µg/mL (≈ 62.6 µM)
MIC [7]: 50 µg/mL (≈ 125 µM)
MIC [8]: 25 µg/mL (≈ 62.6 µM)

O=c1c2ccccc2n2c3nc4ccccc4c-3nnc2n1-c1ccccc1
MIC [1]: 50 µg/mL (≈ 138 µM)
MIC [2]: 25 µg/mL (≈ 68.8 µM)
MIC [3]: > 50 µg/mL
MIC [4]: 25 µg/mL (≈ 68.8 µM)
MIC [5]: 25 µg/mL (≈ 68.8 µM)
MIC [6]: > 50 µg/mL
MIC [7]: 50 µg/mL (≈ 138 µM)
MIC [8]: > 50 µg/mL

O=c1c2ccccc2n2c(-c3ccccc3Cl)nnc2n1-c1ccc(Cl)cc1
MIC [1]: 1.56 µg/mL (≈ 3.83 µM)
MIC [2]: 3.12 µg/mL (≈ 7.66 µM)
MIC [3]: 1.56 µg/mL (≈ 3.83 µM)
MIC [4]: 6.25 µg/mL (≈ 15.3 µM)
MIC [5]: 3.12 µg/mL (≈ 7.66 µM)
MIC [6]: 3.12 µg/mL (≈ 7.66 µM)
MIC [7]: 1.56 µg/mL (≈ 3.83 µM)
MIC [8]: 1.56 µg/mL (≈ 3.83 µM)

O=c1c2ccccc2n2c3nc4ccccc4c-3nnc2n1-c1ccc(Cl)cc1
MIC [1]: 6.25 µg/mL (≈ 15.7 µM)
MIC [2]: 6.25 µg/mL (≈ 15.7 µM)
MIC [3]: 3.12 µg/mL (≈ 7.84 µM)
MIC [4]: 3.12 µg/mL (≈ 7.84 µM)
MIC [5]: 3.12 µg/mL (≈ 7.84 µM)
MIC [6]: 1.56 µg/mL (≈ 3.92 µM)
MIC [7]: 3.12 µg/mL (≈ 7.84 µM)
MIC [8]: 1.56 µg/mL (≈ 3.92 µM)

Cc1ccc(N2C(=O)c3ccccc3N3C2=NNC(=S)N3c2ccc(C)cc2)cc1
MIC [1]: 25 µg/mL (≈ 60.5 µM)
MIC [2]: 50 µg/mL (≈ 121 µM)
MIC [3]: 25 µg/mL (≈ 60.5 µM)
MIC [4]: 12.5 µg/mL (≈ 30.2 µM)
MIC [5]: 50 µg/mL (≈ 121 µM)
MIC [6]: 50 µg/mL (≈ 121 µM)
MIC [7]: 25 µg/mL (≈ 60.5 µM)
MIC [8]: 25 µg/mL (≈ 60.5 µM)

O=C(O)c1cn(C2CC2)c2cc(N3CCNCC3)c(F)cc2c1=O [CIPROFLOXACIN]
MIC [1]: 1.56 µg/mL (≈ 4.71 µM)
MIC [5]: 3.12 µg/mL (≈ 9.42 µM)
MIC [6]: 6.25 µg/mL (≈ 18.9 µM)

OC(Cn1cncn1)(Cn1cncn1)c1ccc(F)cc1F [FLUCONAZOLE]
MIC [2]: 6.25 µg/mL (≈ 20.4 µM)
MIC [3]: 1.56 µg/mL (≈ 5.09 µM)
MIC [4]: 3.12 µg/mL (≈ 10.2 µM)
MIC [8]: 1.56 µg/mL (≈ 5.09 µM)

Source: ChEMBL document CHEMBL1138551, “Antimicrobial studies of some novel quinazolinones fused with [1,2,4]-triazole, [1,2,4]-triazine and [1,2,4,5]-tetrazine rings” (2009)
